Entries after “also recorded” stand apart in the source; their conditions may differ.

For one assay, the system named is GL261 tumor bearing mice. Description: GL261 glioma model: tumor lysate vaccine +/- antagonist, tumor growth by imaging and survival. The format is in vivo, C57BL/6 mice. Conditions: for Tumor growth: tumor lysate vaccine + antagonist vs tumor lysate alone or saline, weekly imaging; for Survival: GL261 glioma model, tumor lysate vaccine + antagonist. How it is done: FIGS. 4A-4C. FIG. 4A) GL261 tumor bearing mice were inoculated with 50 μg of antagonist 6059 one day prior to vaccination with tumor lysate (65 μg)+/−the antagonist 6059 (50 μg). FIG. 4B) Mice were imaged weekly for tumor growth. The following groups were studied: saline (1), tumor lysate (2), and tumor lysate+6059 (3). FIG. 4C) Percent survival post inoculation for saline (1), tumor lysate (2), and tumor lysate+6059 (3) groups.
FIGS. 5A-5B. FIG. 5A) GL261 tumor bearing mice were inoculated with 10 μg of 6059 on day 2 into the tumor site then with 50 μg of antagonist 6059 one day prior to vaccination with tumor lysate (65 μg)+the antagonist 6059 (50 μg). FIG. 5B) Mice were imaged weekly for tumor growth. The following groups were studied: saline (1), tumor lysate+6059 (2), and CNS+tumor lysate+6059 (3) groups.
Whether vaccination with CD200R antagonists could enhance the survival of tumor-bearing mice was also studied. […] GL261 tumor bearing mice were vaccinated weekly with saline, tumor lysates (TL) or tumor lysates+an antagonist (4004, 4013, 6059).
Tumor-bearing mice were inoculated in the brain with 10 μg of the inhibitor 6059 at the same coordinates at which the tumor was injected two days previously. This was followed by weekly injections of tumor lysate+inhibitor (FIGS. 5A-5B).
Tumors were implanted into female C57BL/6 mice (6-8 wk old) (Jackson Laboratory) and maintained in a pathogen-free facility according to the guidelines of the University of Minnesota Animal Care and Use Committee. The GL261 orthotopic transplant model was established in C57BL/6 (B6) mice by inoculation with 15,000 GL261-Luc^+ cells in 1 μl of saline. Tumors were implanted stereotactically into the right striatum; coordinates were 2.5 mm lateral, 0.5 mm anterior of bregma, and 3 mm deep from the cortical surface of the brain^19. Tumor burden was determined by bioluminescent imaging. Light emitted from the tumors was quantified using Living Image software (Xenogen) and expressed as photons per second per centimeter squared per steradian (p/s/cm^2/sr). GL261 cells for tumor lysate vaccines were cultured in neural stem cell media consisting of DMEM/F12 (1:1) with L-glutamine, sodium bicarbonate, penicillin/streptomycin (100 U/ml), B27 and N2 supplements (Life Technologies), and 0.1 mg/ml Normocin (Invivogen). Cultures were maintained at 5% 02 and supplemented with 20 ng/ml EGF and FGF semiweekly (R&D Systems, Minneapolis, Minn.). […] Mice were euthanized when tumors reached 1000 mm^3. […] Tumor cells used to establish both models were cultured in DMEM containing 10% FBS, penicillin/streptomycin (100 U/ml), and 0.1 mg/ml Normocin (Invivogen) in atmospheric oxygen.
Tumor lysates were prepared by dissociating tumor cells with non-enzymatic dissociation solution (Sigma). Cells were then washed 3 times with PBS, re-suspended in 500 μL PBS, and frozen overnight at −80° C. Cells were then lysed by five freeze/thaw cycles of freezing in liquid nitrogen and thawing in a 55° C. water bath. Cell debris was pelleted by centrifugation at 14,000 RCF, and the protein concentration of the supernatant was determined using a Bradford assay. Lysates were stored at −80° C. until use. Each vaccine was prepared on the day of vaccination and consisted of 65 μg of protein tumor lysate and 10 μg Poly:ICLC (Oncovir, Inc.), with or without 50 μg of the 6059 peptide antagonist, in a final volume of 100 μL injected intradermally in the back of the neck. For survival studies, vaccines were administered weekly starting three days post-tumor implantation for a total of 6 doses. In T cell priming experiments, CD8 T-cell priming experiments, animals were vaccinated intradermally on four consecutive days with 100 μg Ovalbumin (OVA) and 10 μg Poly:ICLC, and once more on day eleven^19.

A further assay relates to non-tumor bearing mice. Nature of the assay: Vaccination of non-tumor bearing mice with OVA + glioma-derived exosomes + antagonist. The format is in vivo. How it is done: FIGS. 12A-12C. […] Tumor and non-tumor bearing mice were vaccinated with OVA+Poly:ICLC+/−the CD200R antagonist 6059 and analyzed for FIG. 12A) SIINFEKL/Kb+CD8+ T cell expansion (‘SIINFEKL’ disclosed as SEQ ID NO: 11). FIG. 12B) Lymphocytes were harvested and stimulated with SIINFEKL peptide (SEQ ID NO: 11). Supernatants were analyzed for TNFα and IFNγ secretion. FIG. 12C) The antagonist 6059 was added to OVA+exosomes. Error bars indicate +/−SEM (n=4/group; *P<0.05; by t-test). FIGS. 12A-12C discloses ‘SIINFEKL’ disclosed as SEQ ID NO: 11.
Whether the different antagonists described by Gorczynski et. al. (J Surg Res 2008; 145(1): 87-96) could modulate or reverse the suppressive effects of the tumor microenvironment was also investigated. It was concluded that different antagonists either act through different CD200R isoforms or have different biological effects on the same receptor. These conclusions were supported by experiments where splenocytes were pulsed with OVA+selected CD200R antagonists (6061, 6069, 4004, 4006, 4013) for 24 hours. The splenocytes were then washed and cultured for 48 hours with the addition of OT-1 T cells. The cultures were then assessed for cytokine production using a flow cytometric bead array. […] Other antagonists were similarly evaluated.

Turning to NTIGDGGCY [Antagonist 6059], the “Tumor growth after inoculation of the inhibitor into the CNS tumor site” value with GL261 tumor bearing mice (GL261, 10 μg in the brain on day 2, then tumor lysate + inhibitor) is on record as “Tumor growth was delayed; also recorded: further suppressed tumor growth”. Further, the “Survival enhancement / survival benefit” value with GL261 tumor bearing mice (GL261, tumor lysate + antagonist) is given as 30%. The Tumor growth result with GL261 tumor bearing mice (GL261) was “tumors grow faster in mice vaccinated with saline or tumor lysate alone compared to mice vaccinated with tumor lysate plus an antagonist; also recorded: slowed tumor growth”; in the assay with GL261 tumor bearing mice (GL261, listed as CD200R antagonist), “statistically significant inhibition of tumor growth”. Besides, the values for the Survival entry in the assay on GL261 tumor bearing mice and with GL261 tumor bearing mice (listed as CD200R antagonist) were “increased survival benefit; also recorded: enhancing survival” and “enhanced survival benefit”, respectively. Further, in the assay on non-tumor bearing mice, the “Suppression induced by glioma-derived exosomes” value was “partially reversed the suppression induced by exosomes”.

The values are drawn from patent publication US10576145B2, “CD200 inhibitors and methods of use thereof” (REGENTS OF THE UNIVERSITY OF MINNESOTA, priority 2014, dated 2020).
